Source: patent publication US10183950B2, “Thienopyrimidine inhibitors of atypical protein kinase C” (Cancer Research Technology Limited, priority 2011, dated 2019)

What follows are molecules tested against T1, kinase-domain human PKCι (Homo sapiens, UniProt P41743) (assay: PKCι IC50 IMAP fluorescence polarisation assay, kinase-domain enzyme). Settings: kinase domain PKCi at 2 μM ATP; read-out: IC50 in IMAP assay against kinase domain PKCi.
T1 construct: Recombinant, kinase-domain human PKCι is expressed and purified in-house; made in house
T1 sequence (P41743 254-522 limits assumed): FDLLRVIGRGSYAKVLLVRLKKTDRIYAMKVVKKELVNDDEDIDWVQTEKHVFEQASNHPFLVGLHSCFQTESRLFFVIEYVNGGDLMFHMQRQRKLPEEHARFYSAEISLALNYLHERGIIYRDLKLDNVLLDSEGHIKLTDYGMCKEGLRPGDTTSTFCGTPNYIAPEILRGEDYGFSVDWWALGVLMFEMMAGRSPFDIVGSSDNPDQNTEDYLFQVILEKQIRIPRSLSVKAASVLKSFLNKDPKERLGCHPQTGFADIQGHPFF
Format: biochemical
Procedure: Assays are based on the ability of PKCι to phosphorylate a commercially available peptide substrate in vitro. […] Recombinant, full-length human PKCι expressed in Sf21 insect cells is also commercially available. Recombinant, kinase-domain human PKCι is expressed and purified in-house.
The procedure below explains how dose response curves for inhibitors of PKCι are obtained.
Compounds to be tested are dissolved in 100% DMSO. […] 1 μl is plated into 384 well black low-binding flat bottomed assay plates which are used immediately. Dilutions and additions of compound to assay plates are carried out using Matrix WellMate® and Matrix PlateMate® Plus liquid handling systems.
The final concentration of peptide substrate in the assay is 100 nM. […] Relevant controls are included, namely no compound and no enzyme. […] The reaction is allowed to incubate for 60 minutes at room temperature, before the reaction is stopped and developed by the addition of 20 μl IMAP™ development reagent (Molecular Devices). IMAP development reagent consists of 0.25% (v/v) IMAP progressive binding reagent, 17% (v/v) IMAP progressive binding buffer A and 3% (v/v) IMAP progressive binding buffer B. The plates are then incubated for 2 hours at room temperature before being read using an appropriate plate reader, for example a Molecular Devices HT Analyst or a BMG Pherastar.

Row | IC50 [µM] | SMILES
1 | 10 to 40 | c1cnc2sc3c(N4CCNCC4)nc(-c4ccncc4)nc3c2c1 [compound 376, 4-Piperazin-1-yl-2-pyridin-4-yl-pyrido[3′,2′:4,5]thieno[3,2-d]pyrimidine]
2 | 0.1 to 1 | Clc1cccc2sc3c(N4CCCNCC4)nc(-c4ccncc4)nc3c12 [compound 371, 9-Chloro-4-[1,4]diazepan-1-yl-2-pyridin-4-yl-benzo[4,5]thieno[3,2-d]pyrimidine]
3 | 10 to 40 | NCCNc1nc(-c2ccncc2)nc2cc(-c3ccccc3)sc12 [compound 313, N*1*-(6-Phenyl-2-pyridin-4-yl-thieno[3,2-d]pyrimidin-4-yl)-ethane-1,2-diamine]
4 | 10 to 40 | C[C@H](N)CNc1nc(-c2ccncc2)nc2cc(-c3ccc(C(C)(C)C)cc3)sc12 [compound 359, (S)-N*1*-[6-(4-tert-Butyl-phenyl)-2-pyridin-4-yl-thieno[3,2-d]pyrimidin-4-yl]-propane-1,2-diamine]
5 | 10 to 40 | Cc1csc2c(OC[C@H](N)Cc3ccccc3)nc(-c3ccncc3)nc12 [compound 482, (R)-1-(7-Methyl-2-pyridin-4-yl-thieno[3,2-d]pyrimidin-4-yloxymethyl)-2-phenyl-ethylamine]
6 | 10 to 40 | Cc1csc2c(OC[C@@H]3CCCN3)nc(-c3ccncc3)nc12 [compound 480, 7-Methyl-2-pyridin-4-yl-4-((S)-1-pyrrolidin-2-ylmethoxy)-thieno[3,2-d]pyrimidine]
7 | 0.1 to 1 | Clc1cccc2sc3c(N4CCNCC4)nc(-c4ccncc4)nc3c12 [compound 387, 9-Chloro-4-piperazin-1-yl-2-pyridin-4-yl-benzo[4,5]thieno[3,2-d]pyrimidine]
8 | 10 to 40 | Cc1csc2c(OC[C@H]3CCCN3)nc(-c3ccncc3)nc12 [compound 476, 7-methyl-2-pyridin-4-yl-4-((R)-1-pyrrolidin-2-ylmethoxy)-thieno[3,2-d]pyrimidine]
9 | 10 to 40 | C[C@@H](N)CNc1nc(-c2ccncc2)nc2cc(-c3ccc(C(C)(C)C)cc3)sc12 [compound 358, (R)-N*1*-[6-(4-tert-Butyl-phenyl)-2-pyridin-4-yl-thieno[3,2-d]pyrimidin-4-yl]-propane-1,2-diamine]

Same assay, conditions: kinase domain PKCi at 2 μM ATP; read-out: IC50 in IMAP assay against kinase domain PKCi (Activity)

Row | IC50 [µM] | SMILES
10 | 10 to 40 | COc1ccc(C[C@@H](N)COc2nc(-c3ccncc3)nc3sc4c(c23)CCCC4)cc1 [compound 169, (R)-1-(4-Methoxy-benzyl)-2-(2-pyridin-4-yl-5,6,7,8-tetrahydro-benzo[4,5]thieno[2,3-d]pyrimidin-4-yloxy)-ethylamine]
11 | 10 to 40 | CC(C)c1cc2c(NC[C@@H](C)N)nc(-c3ccncc3)nc2s1 [compound 41, (R)-N*1*-(6-Isopropyl-2-pyridin-4-yl-thieno[2,3-d]pyrimidin-4-yl)-propane-1,2-diamine]
12 | 1 to 10 | Cc1ccccc1C[C@H](N)COc1nc(-c2ccncc2)nc2sc3c(c12)CCCC3 [compound 174, (S)-1-(2-Methyl-benzyl)-2-(2-pyridin-4-yl-5,6,7,8-tetrahydro-benzo[4,5]thieno[2,3-d]pyrimidin-4-yloxy)-ethylamine]
13 | 0.1 to 1 | CN(CCN)c1nc(-c2ccncc2)nc2sc3c(c12)CCCC3 [compound 15, N*1*-Methyl-N*1*-(2-pyridin-4-yl-5,6,7,8-tetrahydro-benzo[4,5]thieno[2,3-d]pyrimidin-4-yl)-ethane-1,2-diamine]
14 | 1 to 10 | C[C@H](N)CNc1nc(-c2ccncc2F)nc2sc3c(c12)CCCC3 [compound 99, (S)-N*1*-[2-(3-Fluoro-pyridin-4-yl)-5,6,7,8-tetrahydro-benzo[4,5]thieno[2,3-d]pyrimidin-4-yl]-propane-1,2-diamine]
15 | 10 to 40 | c1cc(-c2nc(OC[C@@H]3CCCCN3)c3c4c(sc3n2)CCCC4)ccn1 [compound 179, 4-((S)-1-Piperidin-2-ylmethoxy)-2-pyridin-4-yl-5,6,7,8-tetrahydro-benzo[4,5]thieno[2,3-d]pyrimidine]
16 | 1 to 10 | c1ccc(-c2cc3nc(-c4ccncc4)nc(N4CCNCC4)c3s2)cc1 [compound 301, 6-phenyl-4-piperazin-1-yl-2-pyridin-4-yl-thieno[3,2-d]pyrimidine]
17 | 1 to 10 | CC[C@H](N)CNc1nc(-c2ccncc2)nc2sc3c(c12)CCCC3 [compound 68, (S)-N*1*-(2-Pyridin-4-yl-5,6,7,8-tetrahydro-benzo[4,5]thieno[2,3-d]pyrimidin-4-yl)-butane-1,2-diamine]
18 | 10 to 40 | CCCCN1CCN(c2nc(-c3ccncc3)nc3sc4c(c23)CCCC4)CC1 [compound 129, 4-(4-Butyl-piperazin-1-yl)-2-pyridin-4-yl-5,6,7,8-tetrahydro-benzo[4,5]thieno[2,3-d]pyrimidine]
19 | 1 to 10 | c1cc(-c2nc(OC3CNC3)c3c4c(sc3n2)CCCC4)ccn1 [compound 152, 4-(Azetidin-3-yloxy)-2-pyridin-4-yl-5,6,7,8-tetrahydro-benzo[4,5]thieno[2,3-d]pyrimidine]
20 | 1 to 10 | Cc1sc2nc(-c3ccncc3)nc(NC[C@@H](C)N)c2c1C [compound 38, (R)-N*1*-(5,6-Dimethyl-2-pyridin-4-yl-thieno[2,3-d]pyrimidin-4-yl)-propane-1,2-diamine]
21 | 10 to 40 | N[C@H](CCc1ccccc1)COc1nc(-c2ccncc2)nc2sc3c(c12)CCCC3 [compound 167, (R)-3-Phenyl-1-(2-pyridin-4-yl-5,6,7,8-tetrahydro-benzo[4,5]thieno[2,3-d]pyrimidin-4-yloxymethyl)-propylamine]
22 | 1 to 10 | N[C@@H](CNc1nc(-c2ccncc2)nc2sc3c(c12)CCCC3)Cc1c[nH]c2ccccc12 [compound 7, (R)-3-(1H-Indol-3-yl)-N*1*- (2-pyridin-4-yl-5,6,7,8-tetrahydro-benzo[4,5]thieno[2,3-d]pyrimidin-4-yl)-propane-1,2-diamine]
23 | 10 to 40 | N[C@@H](COc1nc(-c2ccncc2)nc2sc3c(c12)CCCC3)c1ccccc1 [compound 147, (R)-1-Phenyl-2-(2-pyridin-4-yl-5,6,7,8-tetrahydro-benzo[4,5]thieno[2,3-d]pyrimidin-4-yloxy)-ethylamine]
24 | 1 to 10 | N[C@H](COc1nc(-c2ccncc2)nc2sc3c(c12)CCCC3)Cc1cccc2ccccc12 [compound 161, (S)-1-Naphthalen-1-ylmethyl-2-(2-pyridin-4-yl-5,6,7,8-tetrahydro-benzo[4,5]thieno[2,3-d]pyrimidin-4-yloxy)-ethylamine]
25 | 1 to 10 | CC(C)C[C@H](N)COc1nc(-c2ccncc2)nc2sc3c(c12)CCCC3 [compound 138, (S)-3-Methyl-1-(2-pyridin-4-yl-5,6,7,8-tetrahydro-benzo[4,5]thieno[2,3-d]pyrimidin-4-yloxymethyl)-butylamine]
26 | 1 to 10 | CC1CCc2c(sc3nc(-c4ccncc4)nc(NC[C@@H](C)N)c23)C1 (stereo partly drawn) [compound 23, (R)-N*1*-(7-Methyl-2-pyridin-4-yl-5,6,7,8-tetrahydro-benzo[4,5]thieno[2,3-d]pyrimidin-4-yl)-propane-1,2-diamine]
27 | 1 to 10 | CC[C@@H](N)COc1nc(-c2ccncc2)nc2sc3c(c12)CCCC3 [compound 149, (R)-1-(2-Pyridin-4-yl-5,6,7,8-tetrahydro-benzo[4,5]thieno[2,3-d]pyrimidin-4-yloxymethyl)-propylamine]
28 | < 0.1 | Cc1csc2c(NC[C@@H](N)Cc3ccccc3)nc(-c3ccncc3)nc12 [compound 302]
29 | 1 to 10 | Cc1sc2nc(-c3ccncc3)nc(NC[C@H](C)N)c2c1C [compound 37, (S)-N*1*-(5,6-Dimethyl-2-pyridin-4-yl-thieno[2,3-d]pyrimidin-4-yl)-propane-1,2-diamine]
30 | 0.1 to 1 | Cc1c(C(N)=O)sc2nc(-c3ccncc3)nc(NC[C@@H](N)Cc3ccccc3)c12 [compound 74, 4-((S)-2-Amino-3-phenyl-propylamino)-5-methyl-2-pyridin-4-yl-thieno[2,3-d]pyrimidine-6-carboxylic acid amide]
31 | 1 to 10 | CC(C)c1cc2c(NCCN)nc(-c3ccncc3)nc2s1 [compound 40, N*1*-(6-Isopropyl-2-pyridin-4-yl-thieno[2,3-d]pyrimidin-4-yl)-ethane-1,2-diamine]
32 | 1 to 10 | C[C@@H](N)COc1nc(-c2ccncc2)nc2sc3c(c12)CCCC3 [compound 145, (R)-1-Methyl-2-(2-pyridin-4-yl-5,6,7,8-tetrahydro-benzo[4,5]thieno[2,3-d]pyrimidin-4-yloxy)-ethylamine]
33 | 1 to 10 | Cc1cccc(C[C@H](N)COc2nc(-c3ccncc3)nc3sc4c(c23)CCCC4)c1 [compound 165, (S)-1-(3-Methyl-benzyl)-2-(2-pyridin-4-yl-5,6,7,8-tetrahydro-benzo[4,5]thieno[2,3-d]pyrimidin-4-yloxy)-ethylamine]
34 | 1 to 10 | Cc1sc2nc(-c3ccncc3)nc(NCCN)c2c1-c1ccccc1 [compound 91, N*1*-(6-Methyl-5-phenyl-2-pyridin-4-yl-thieno[2,3-d]pyrimidin-4-yl)-ethane-1,2-diamine]
